Data reported in patent publication US8415469B2, “Compounds and methods for kinase modulation, and indications therefor” (Plexxikon Inc., priority 2005, dated 2013).
One block for each compound: values may come before it.

How the values were obtained:
Assay type in all cases: biochemical
Akt3 = Akt3 (Homo sapiens, UniProt Q9Y243); experiment: AlphaScreen kinase assay, Akt3; conditions: read-out: IC50, activity toward kinase Akt3
From the text: AlphaScreen assay was used to screen additional kinases. The assay is similarly dependent on the phosphorylation of a peptide substrate. In this assay, an antibody that recognizes phosphorylated substrate is bound to an acceptor bead. The peptide substrate is attached to biotin, which binds to a donor head that contains streptavidin. Thus phosphorylated substrate is bound by antibody and streptavidin, bringing the donor and acceptor heads into close proximity when kinase is not inhibited. The donor produces singlet oxygen which results in emission from the acceptor when they are in close proximity. Conversely, when kinase is inhibited, the donor and acceptor beads are not associated and the emission from the acceptor is reduced.
AlphaScreen assays were done using compounds dissolved in DMSO to a concentration of 20 mM. The compounds were diluted accordingly to the desired final concentrations in each sample well, using 1:3 serial dilution for a total of 8 concentration points.

Yes = biological target: T1, Yes (Homo sapiens, UniProt P07947); experiment: Z'-Lyte FRET kinase assay (Invitrogen), Yes; conditions: read-out: IC50, activity toward kinase Yes
T1 construct: purchased Invitrogen (Carlsbad, Calif.), screening service
Procedure, shortened: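 Inhibition was inferred from protease cleavage of non-phosphorylated peptide, measured as a coumarin/fluorescein ratio. Kinase reactions used 10 μM ATP for 1 h at room temperature.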

Kdr = biological target: T2, Kdr (Homo sapiens, UniProt P35968); experiment: Z'-Lyte FRET kinase assay (Invitrogen), Kdr; conditions: read-out: IC50, activity toward kinase Kdr
T2 construct: purchased Invitrogen (assay run by Invitrogen)

MAP4K4 = MAP4K4 (Homo sapiens, UniProt O95819); experiment: AlphaScreen kinase assay, MAP4K4; conditions: read-out: IC50, activity toward kinase MAP4K4
Stk6 = biological target: T3, Stk6 (Homo sapiens, UniProt O14965); experiment: Z'-Lyte FRET kinase assay (Invitrogen), Stk6; conditions: read-out: IC50, activity toward kinase Stk6
T3 construct: purchased Invitrogen (Carlsbad, Calif.), screening service
T3 sequence (O14965 1-403): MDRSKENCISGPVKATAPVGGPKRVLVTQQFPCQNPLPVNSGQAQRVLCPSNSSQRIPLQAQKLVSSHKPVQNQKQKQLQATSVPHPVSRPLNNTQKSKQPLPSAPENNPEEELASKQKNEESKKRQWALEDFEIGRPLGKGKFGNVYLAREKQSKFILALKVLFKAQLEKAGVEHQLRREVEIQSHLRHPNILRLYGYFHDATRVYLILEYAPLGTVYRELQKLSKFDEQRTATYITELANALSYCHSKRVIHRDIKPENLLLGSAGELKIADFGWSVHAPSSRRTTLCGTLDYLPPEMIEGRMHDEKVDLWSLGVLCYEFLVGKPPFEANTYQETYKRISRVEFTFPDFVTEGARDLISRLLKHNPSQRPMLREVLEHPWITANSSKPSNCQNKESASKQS

FGFR1 = biological target: T4, FGFR1 (Homo sapiens, UniProt P11362, C488A/C584S); experiment: AlphaScreen kinase assay, FGFR1; conditions: read-out: IC50, activity toward kinase FGFR
T4 construct: P1351.pET N6 BI-PTP FGFR A458-E765-X C488A, C584S; made in house; host or cells: E. coli (PTP1B co-expressed)

Pyk2 = biological target: T5, Pyk2 (Homo sapiens, UniProt Q14289); experiment: AlphaScreen kinase assay, Pyk2; conditions: read-out: IC50, activity toward kinase Pyk2
T5 construct: purchased Upstate Biotechnology

Kit = biological target: T6, Kit (Homo sapiens, UniProt P10721); experiment: AlphaScreen kinase assay, Kit; conditions: read-out: IC50, activity toward kinase Kit
T6 construct: P1332.N6 BI PTP KIT M552-K948-X COD; His6 (N); made in house; host or cells: E. coli (PTP1B co-expressed)

B-Raf V600E = biological target: T7, B-Raf V600E (Homo sapiens, UniProt P15056, V600E); experiment: AlphaScreen kinase assay, B-Raf V600E; conditions: read-out: IC50, activity toward kinase B-Raf V600E
T7 construct: P4254. pFastBacBD-CDC37 BRAF D437-K722-X, V600E; His6 with pFastBac HT leader (TEV site) (N); made in house; host or cells: Sf9 (baculovirus; chaperone CDC37 co-expressed)

Fms = biological target: T8, Fms (Homo sapiens, UniProt P07333); experiment: AlphaScreen kinase assay, Fms; conditions: read-out: IC50, activity toward kinase Fms
T8 construct: purchased Upstate Biotechnology

Flt1 = biological target: T9, Flt1 (Homo sapiens, UniProt P17948); experiment: AlphaScreen kinase assay, Flt1; conditions: read-out: IC50, activity toward kinase Flt1
T9 construct: P1826.pETN6 BI-PTP FLT1 M799-D1165-X WT; His6 (N); made in house; host or cells: E. coli (PTP1B co-expressed)
T9 sequence (P17948 with tags, fused parts or gaps): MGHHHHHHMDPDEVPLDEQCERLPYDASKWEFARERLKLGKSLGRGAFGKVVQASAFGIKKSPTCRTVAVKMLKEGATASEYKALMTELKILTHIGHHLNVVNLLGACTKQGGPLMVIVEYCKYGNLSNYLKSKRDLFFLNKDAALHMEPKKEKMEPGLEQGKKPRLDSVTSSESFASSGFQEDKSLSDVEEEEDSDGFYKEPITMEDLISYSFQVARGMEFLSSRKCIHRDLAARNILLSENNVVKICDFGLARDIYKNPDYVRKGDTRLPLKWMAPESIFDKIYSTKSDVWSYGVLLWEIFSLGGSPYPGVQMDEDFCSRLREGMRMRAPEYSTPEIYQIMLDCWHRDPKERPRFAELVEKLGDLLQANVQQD

B-Raf = biological target: T10, B-Raf (Homo sapiens, UniProt P15056); experiment: AlphaScreen kinase assay, B-Raf; conditions: read-out: IC50, activity toward kinase B-Raf
T10 construct: purchased Upstate Biotechnology

c-Raf-1 = biological target: T11, c-Raf-1 (Homo sapiens, UniProt P04049); experiment: AlphaScreen kinase assay, c-Raf-1; conditions: read-out: IC50, activity toward kinase c-Raf-1
T11 construct: purchased Upstate Biotechnology

Jnk3 = biological target: T12, Jnk3 (Homo sapiens, UniProt P53779); experiment: AlphaScreen kinase assay, Jnk3; conditions: read-out: IC50, activity toward kinase Jnk3
T12 construct: purchased Upstate Biotechnology

Jnk1 = biological target: T13, Jnk1 (Homo sapiens, UniProt P45983); experiment: AlphaScreen kinase assay, Jnk1; conditions: read-out: IC50, activity toward kinase Jnk1
T13 construct: purchased Upstate Biotechnology

Jnk2 = biological target: T14, Jnk2 (Homo sapiens, UniProt P45984); experiment: AlphaScreen kinase assay, Jnk2; conditions: read-out: IC50, activity toward kinase Jnk2
T14 construct: purchased Roche Protein Expression Group (Indianapolis, IN)
Procedure, shortened: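 Peptide phosphorylation detected by proximity: streptavidin donor beads bind biotinylated substrate, acceptor beads carry antibody to phosphorylated substrate, singlet oxygen transfer gives emission. Dose-response over 8 points (1:3 steps); stocks 20 mM in DMSO.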

Ret = biological target: T15, Ret (Homo sapiens, UniProt P07949); experiment: AlphaScreen kinase assay, Ret; conditions: read-out: IC50, activity toward kinase Ret
T15 construct: P1378.pET-SF BI-PTP RET H661-R1012 HIS; made in house
T15 sequence (P07949 with tags, fused parts or gaps): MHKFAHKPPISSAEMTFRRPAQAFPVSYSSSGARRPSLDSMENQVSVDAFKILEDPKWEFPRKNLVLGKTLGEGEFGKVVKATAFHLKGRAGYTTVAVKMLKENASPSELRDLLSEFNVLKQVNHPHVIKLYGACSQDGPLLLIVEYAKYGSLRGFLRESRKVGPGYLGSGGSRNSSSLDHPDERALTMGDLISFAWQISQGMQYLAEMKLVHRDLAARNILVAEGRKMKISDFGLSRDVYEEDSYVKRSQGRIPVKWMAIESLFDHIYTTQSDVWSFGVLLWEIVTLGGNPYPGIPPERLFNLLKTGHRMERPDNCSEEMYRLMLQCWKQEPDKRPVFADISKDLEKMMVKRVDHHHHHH

Sequence of MAP4K4 (O95819 whole entry): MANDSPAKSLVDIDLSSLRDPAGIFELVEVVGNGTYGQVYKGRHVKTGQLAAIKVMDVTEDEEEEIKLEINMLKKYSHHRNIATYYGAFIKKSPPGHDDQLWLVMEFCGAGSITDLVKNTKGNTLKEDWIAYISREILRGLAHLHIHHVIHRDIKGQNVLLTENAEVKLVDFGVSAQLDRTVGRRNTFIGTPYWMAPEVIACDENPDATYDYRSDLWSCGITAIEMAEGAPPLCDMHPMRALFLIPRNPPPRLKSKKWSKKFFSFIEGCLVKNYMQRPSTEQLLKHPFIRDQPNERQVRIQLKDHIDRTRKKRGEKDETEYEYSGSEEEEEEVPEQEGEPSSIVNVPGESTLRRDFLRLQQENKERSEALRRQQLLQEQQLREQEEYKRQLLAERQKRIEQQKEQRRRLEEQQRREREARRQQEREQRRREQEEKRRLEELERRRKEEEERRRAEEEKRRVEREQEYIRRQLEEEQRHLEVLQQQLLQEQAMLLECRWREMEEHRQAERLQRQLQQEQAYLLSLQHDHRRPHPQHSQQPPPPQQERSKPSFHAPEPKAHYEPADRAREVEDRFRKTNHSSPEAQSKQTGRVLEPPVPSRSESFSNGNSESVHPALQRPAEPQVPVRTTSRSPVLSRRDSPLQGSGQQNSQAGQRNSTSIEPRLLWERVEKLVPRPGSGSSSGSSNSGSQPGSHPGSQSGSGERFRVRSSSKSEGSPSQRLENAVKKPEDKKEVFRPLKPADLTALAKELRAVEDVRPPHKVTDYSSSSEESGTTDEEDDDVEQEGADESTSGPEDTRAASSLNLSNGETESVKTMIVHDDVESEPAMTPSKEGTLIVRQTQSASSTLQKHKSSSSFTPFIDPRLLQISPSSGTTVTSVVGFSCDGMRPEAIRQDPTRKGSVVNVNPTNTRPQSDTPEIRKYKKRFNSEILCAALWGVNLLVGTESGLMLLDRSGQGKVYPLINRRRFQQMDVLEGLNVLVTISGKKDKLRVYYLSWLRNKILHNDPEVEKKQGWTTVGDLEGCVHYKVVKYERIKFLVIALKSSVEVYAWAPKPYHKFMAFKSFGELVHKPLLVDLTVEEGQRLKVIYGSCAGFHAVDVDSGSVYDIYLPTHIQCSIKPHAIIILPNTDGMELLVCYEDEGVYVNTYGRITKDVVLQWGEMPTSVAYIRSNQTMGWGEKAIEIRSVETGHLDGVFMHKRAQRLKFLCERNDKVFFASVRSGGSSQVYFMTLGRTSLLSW
Sequence of Akt3 (Q9Y243 whole entry): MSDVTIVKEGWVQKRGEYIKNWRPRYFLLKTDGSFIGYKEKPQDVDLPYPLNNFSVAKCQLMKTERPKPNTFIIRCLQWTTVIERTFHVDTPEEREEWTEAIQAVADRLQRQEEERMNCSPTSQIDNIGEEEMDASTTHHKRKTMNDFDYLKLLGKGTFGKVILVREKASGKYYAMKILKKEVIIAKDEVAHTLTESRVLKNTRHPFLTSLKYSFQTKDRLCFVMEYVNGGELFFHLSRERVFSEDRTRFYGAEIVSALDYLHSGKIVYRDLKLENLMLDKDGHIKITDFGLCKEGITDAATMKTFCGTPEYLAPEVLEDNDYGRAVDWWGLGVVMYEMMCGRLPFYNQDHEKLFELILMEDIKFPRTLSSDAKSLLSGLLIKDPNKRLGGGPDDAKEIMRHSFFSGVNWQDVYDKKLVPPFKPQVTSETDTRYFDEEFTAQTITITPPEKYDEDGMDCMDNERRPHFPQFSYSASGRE
T7 sequence (P15056 with tags, fused parts or gaps V600E): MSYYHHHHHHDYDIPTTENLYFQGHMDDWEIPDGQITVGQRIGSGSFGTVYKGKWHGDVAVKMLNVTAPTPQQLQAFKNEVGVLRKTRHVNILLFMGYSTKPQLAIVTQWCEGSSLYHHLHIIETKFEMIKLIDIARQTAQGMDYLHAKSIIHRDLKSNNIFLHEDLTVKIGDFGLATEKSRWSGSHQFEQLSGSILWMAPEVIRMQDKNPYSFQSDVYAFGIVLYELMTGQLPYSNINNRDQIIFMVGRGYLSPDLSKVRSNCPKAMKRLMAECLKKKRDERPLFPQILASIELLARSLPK
T4 sequence (P11362 458-765 C488A/C584S): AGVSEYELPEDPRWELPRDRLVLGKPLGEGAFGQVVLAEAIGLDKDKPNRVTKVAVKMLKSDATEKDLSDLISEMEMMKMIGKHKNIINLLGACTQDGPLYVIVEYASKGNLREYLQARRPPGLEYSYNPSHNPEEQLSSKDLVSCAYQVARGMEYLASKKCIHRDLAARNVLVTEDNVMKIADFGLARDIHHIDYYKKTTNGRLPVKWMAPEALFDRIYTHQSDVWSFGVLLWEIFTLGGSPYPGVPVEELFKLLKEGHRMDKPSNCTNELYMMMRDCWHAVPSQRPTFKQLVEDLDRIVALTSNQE
T2 sequence (P35968 20-1356): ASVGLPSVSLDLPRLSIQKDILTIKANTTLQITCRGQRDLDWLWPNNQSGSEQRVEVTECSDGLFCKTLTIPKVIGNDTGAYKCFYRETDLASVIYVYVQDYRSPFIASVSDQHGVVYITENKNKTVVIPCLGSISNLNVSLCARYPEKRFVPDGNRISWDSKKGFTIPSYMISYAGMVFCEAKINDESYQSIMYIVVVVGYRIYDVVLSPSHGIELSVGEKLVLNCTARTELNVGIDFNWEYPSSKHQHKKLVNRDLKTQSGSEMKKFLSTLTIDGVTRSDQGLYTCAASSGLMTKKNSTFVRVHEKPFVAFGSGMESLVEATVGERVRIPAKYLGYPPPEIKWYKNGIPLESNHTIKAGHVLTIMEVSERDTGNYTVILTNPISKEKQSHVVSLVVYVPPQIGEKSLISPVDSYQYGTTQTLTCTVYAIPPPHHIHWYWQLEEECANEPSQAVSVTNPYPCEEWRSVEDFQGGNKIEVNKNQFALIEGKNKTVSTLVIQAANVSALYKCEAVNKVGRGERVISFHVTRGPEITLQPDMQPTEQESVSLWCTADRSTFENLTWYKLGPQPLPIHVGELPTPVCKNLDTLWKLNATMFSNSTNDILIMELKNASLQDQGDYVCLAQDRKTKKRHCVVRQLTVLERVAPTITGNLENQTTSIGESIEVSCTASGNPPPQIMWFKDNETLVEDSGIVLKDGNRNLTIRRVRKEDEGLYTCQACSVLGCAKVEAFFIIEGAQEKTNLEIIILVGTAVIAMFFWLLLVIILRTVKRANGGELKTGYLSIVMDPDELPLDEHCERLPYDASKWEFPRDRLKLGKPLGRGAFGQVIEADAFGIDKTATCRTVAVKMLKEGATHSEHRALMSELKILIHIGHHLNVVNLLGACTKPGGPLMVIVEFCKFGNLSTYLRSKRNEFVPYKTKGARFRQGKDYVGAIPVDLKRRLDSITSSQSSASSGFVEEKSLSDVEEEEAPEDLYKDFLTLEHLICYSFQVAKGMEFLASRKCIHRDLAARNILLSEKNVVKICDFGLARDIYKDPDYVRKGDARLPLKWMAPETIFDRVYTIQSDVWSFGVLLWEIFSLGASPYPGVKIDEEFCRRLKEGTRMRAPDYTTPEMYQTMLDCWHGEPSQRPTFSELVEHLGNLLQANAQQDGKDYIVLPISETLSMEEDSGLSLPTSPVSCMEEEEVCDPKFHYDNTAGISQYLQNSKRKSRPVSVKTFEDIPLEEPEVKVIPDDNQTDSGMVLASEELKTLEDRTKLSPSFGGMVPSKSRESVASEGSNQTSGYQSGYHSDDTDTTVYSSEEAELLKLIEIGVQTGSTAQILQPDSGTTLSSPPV
T13 sequence (P45983 whole entry): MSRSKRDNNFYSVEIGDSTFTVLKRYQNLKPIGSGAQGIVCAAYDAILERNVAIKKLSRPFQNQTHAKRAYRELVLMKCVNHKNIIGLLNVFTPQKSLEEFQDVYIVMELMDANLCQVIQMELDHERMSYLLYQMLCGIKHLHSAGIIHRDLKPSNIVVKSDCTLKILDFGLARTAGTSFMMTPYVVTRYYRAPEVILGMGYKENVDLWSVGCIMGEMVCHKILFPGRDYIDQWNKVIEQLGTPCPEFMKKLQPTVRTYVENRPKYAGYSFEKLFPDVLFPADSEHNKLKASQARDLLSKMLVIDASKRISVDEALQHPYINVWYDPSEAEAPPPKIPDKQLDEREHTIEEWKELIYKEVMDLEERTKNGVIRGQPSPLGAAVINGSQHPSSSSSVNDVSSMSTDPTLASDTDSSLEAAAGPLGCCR
T1 sequence (P07947 whole entry): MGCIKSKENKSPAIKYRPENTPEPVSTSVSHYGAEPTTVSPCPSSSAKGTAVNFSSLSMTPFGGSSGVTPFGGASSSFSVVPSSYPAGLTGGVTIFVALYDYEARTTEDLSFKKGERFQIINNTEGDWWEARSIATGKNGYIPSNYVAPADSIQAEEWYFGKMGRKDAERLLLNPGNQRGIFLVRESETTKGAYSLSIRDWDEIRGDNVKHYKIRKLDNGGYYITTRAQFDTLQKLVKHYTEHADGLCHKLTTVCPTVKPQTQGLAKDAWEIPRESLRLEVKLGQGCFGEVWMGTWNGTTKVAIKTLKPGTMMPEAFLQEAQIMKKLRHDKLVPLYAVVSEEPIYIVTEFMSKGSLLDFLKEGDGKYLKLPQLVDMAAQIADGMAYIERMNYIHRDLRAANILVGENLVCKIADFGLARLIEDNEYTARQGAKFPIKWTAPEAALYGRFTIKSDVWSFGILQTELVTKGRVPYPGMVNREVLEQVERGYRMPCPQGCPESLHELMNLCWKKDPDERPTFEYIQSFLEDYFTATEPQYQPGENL
T6 sequence (P10721 with tags, fused parts or gaps): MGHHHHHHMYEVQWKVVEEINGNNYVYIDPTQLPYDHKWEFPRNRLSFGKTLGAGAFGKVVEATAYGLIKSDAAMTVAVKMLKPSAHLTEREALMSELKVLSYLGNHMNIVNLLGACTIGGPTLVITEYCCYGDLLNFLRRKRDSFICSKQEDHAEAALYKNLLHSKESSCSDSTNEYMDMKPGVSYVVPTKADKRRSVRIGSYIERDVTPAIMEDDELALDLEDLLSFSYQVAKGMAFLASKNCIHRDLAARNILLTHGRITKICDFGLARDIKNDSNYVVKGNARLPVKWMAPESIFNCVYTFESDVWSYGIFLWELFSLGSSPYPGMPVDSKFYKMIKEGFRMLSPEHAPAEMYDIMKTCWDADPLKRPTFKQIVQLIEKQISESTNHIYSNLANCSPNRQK

IC50 (Akt3): ≤ 10 µM
SMILES: CSc1ccc(Nc2cnc3[nH]ccc3c2)cc1 [Compound P-1158]

IC50 (Yes): ≤ 10 µM | IC50 (Kdr): ≤ 10 µM | IC50 (MAP4K4): ≤ 10 µM | IC50 (Stk6): ≤ 10 µM
SMILES: O=C(c1ccc(NCC2CC2)nc1)c1c[nH]c2ncccc12 [Compound P-0202]

IC50 (FGFR1): ≤ 10 µM | IC50 (Pyk2): ≤ 10 µM | IC50 (Kit): ≤ 10 µM | IC50 (B-Raf V600E): ≤ 10 µM | IC50 (Fms): ≤ 10 µM | IC50 (Kdr): ≤ 10 µM | IC50 (MAP4K4): ≤ 10 µM | IC50 (Flt1): ≤ 10 µM | IC50 (Stk6): ≤ 10 µM
SMILES: OCCOc1cccc(Cc2c[nH]c3ncc(-c4ccsc4)cc23)c1 [Compound P-0287]

IC50 (Akt3): ≤ 10 µM
SMILES: COc1ccc(Nc2ccnc3[nH]ccc23)cc1Cl [Compound P-0936]

IC50 (Akt3): ≤ 10 µM
SMILES: Oc1ccc(Nc2ccnc3[nH]ccc23)cc1 [Compound P-1172]

IC50 (Akt3): ≤ 10 µM
SMILES: CC(C)c1ccc(Nc2cnc3[nH]ccc3c2)cc1 [Compound P-1039]

IC50 (Akt3): ≤ 10 µM
SMILES: c1cnc2ccc(Nc3cnc4[nH]ccc4c3)cc2c1 [Compound P-1034]

IC50 (Akt3): ≤ 10 µM
SMILES: Cc1cccc(Nc2ccnc3[nH]ccc23)c1 [Compound P-1060]

IC50 (B-Raf): ≤ 10 µM | IC50 (c-Raf-1): ≤ 10 µM | IC50 (FGFR1): ≤ 10 µM | IC50 (Jnk3): ≤ 10 µM | IC50 (B-Raf V600E): ≤ 10 µM | IC50 (Jnk1): ≤ 10 µM | IC50 (Jnk2): ≤ 10 µM | IC50 (MAP4K4): ≤ 10 µM | IC50 (Ret): ≤ 10 µM
SMILES: CS(=O)(=O)Nc1ccc(Cl)c(C(=O)c2c[nH]c3ncc(-c4cccnc4)cc23)c1F [Compound P-0734, N-[4-Chloro-2-fluoro-3-(5-pyridin-3-yl-1H-pyrrolo[2,3-b]pyridine-3-carbonyl)-phenyl]-methanesulfonamide]

IC50 (Akt3): ≤ 10 µM
SMILES: CSc1cccc(Nc2cnc3[nH]ccc3c2)c1 [Compound P-1150]
